Measurements: PubChem BioAssay (NCI)
Where “and” joins values, the source holds several entries; their conditions need not be identical. Identical values can stand only once.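 Grown in 96-well plates, cells were treated for 48 hours with each compound at five concentrations. Insufficient inhibition: endpoint recorded as highest concentration tested. GI50 = concentration required for 50% inhibition of growth. TGI denotes the concentration required for complete inhibition of growth.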

Assays:
Assay in all cases: NCI anticancer screen, dose series, 48 h
[1] = test system: 786-0 renal
[2] = test system: CCRF-CEM leukemia
[3] = test system: HL-60(TB) leukemia
[4] = test system: IGROV1 ovarian
[5] = test system: M14 melanoma
[6] = test system: MCF7 breast
[7] = test system: SK-OV-3 ovarian
[8] = test system: SNB-19 CNS
[9] = test system: U251 CNS
[10] = test system: RXF 393 renal

Compound: Cc1cnc2c(c1)C(=O)N(c1ccc(Oc3ccccc3)cc1)S2(=O)=O
- TGI [1]: > 100 µM
- TGI [2]: > 100 µM
- TGI [3]: > 100 µM
- TGI [4]: > 100 µM
- TGI [5]: > 100 µM
- TGI [6]: > 100 µM
- TGI [7]: > 100 µM
- TGI [8]: > 100 µM
- TGI [9]: > 100 µM

Compound: Cc1ccc2sc3c(NCCCN)nc4ccccc4c3c(=O)c2c1
- GI50 [2]: 2.32 µM
- TGI [2]: 5.61 µM
- GI50 [3]: 2.05 µM
- TGI [3]: 4.09 µM
- GI50 [4]: 1.61 µM
- TGI [4]: 3.26 µM
- GI50 [5]: 1.91 µM
- TGI [5]: 3.61 µM
- GI50 [6]: 1.77 µM
- TGI [6]: 3.36 µM
- GI50 [10]: 1.52 µM
- TGI [10]: 3.02 µM
- GI50 [8]: 1.86 µM
- TGI [8]: 3.69 µM

Compound: CCCN=C1NC(C)=CSC(Nc2ccccc2)=C1C#N
- TGI [1]: > 100 µM
- TGI [5]: > 100 µM
- TGI [6]: > 100 µM
- TGI [10]: > 100 µM
- TGI [7]: > 100 µM
- TGI [8]: > 100 µM
- TGI [9]: > 100 µM

Compound: CC(=O)/C=C(/C)[O-].CC(=O)/C=C(/C)[O-].CC(=O)[CH-]C(C)=O.CC(=O)[CH-]C(C)=O.[Zr+4]
- GI50 [2]: > 100 µM
- TGI [2]: > 100 µM
- GI50 [3]: 28.8 µM
- TGI [3]: 71.3 µM
- GI50 [5]: > 100 µM
- TGI [5]: > 100 µM
- GI50 [10]: > 100 µM
- TGI [10]: > 100 µM
- GI50 [7]: > 100 µM
- TGI [7]: > 100 µM
- GI50 [8]: > 100 µM
- TGI [8]: > 100 µM
- GI50 [9]: > 100 µM
- TGI [9]: > 100 µM

Compound: CC(C)OC1=C(CC2(C)OCCO2)C(=O)C12OCCO2
- TGI [1]: > 100 µM
- TGI [2]: > 100 µM
- TGI [3]: > 100 µM
- TGI [4]: > 100 µM
- TGI [5]: > 100 µM
- TGI [6]: > 100 µM
- TGI [7]: > 100 µM
- TGI [8]: > 100 µM
- TGI [9]: > 100 µM

Compound: [N-]=[N+]=C(C(=O)CN1CCCC1=O)S(=O)(=O)c1ccccc1
- TGI [1]: > 100 µM
- TGI [2]: > 100 µM
- TGI [3]: > 100 µM
- TGI [4]: > 100 µM
- TGI [5]: > 100 µM
- TGI [6]: > 100 µM
- TGI [10]: > 100 µM
- TGI [8]: > 100 µM
- TGI [9]: > 100 µM

Compound: O=C1C(Cl)N(c2ccc([N+](=O)[O-])cc2)C1c1c[nH]c2ccccc12 (stereo not given)
- TGI [2]: > 100 µM
- TGI [3]: > 100 µM
- TGI [4]: > 100 µM
- TGI [5]: > 100 µM
- TGI [10]: > 100 µM
- TGI [7]: > 100 µM
- TGI [8]: > 100 µM
- TGI [9]: > 100 µM

Compound: CCOP(=O)(OCC)C(Nc1ccc(Cl)cc1)c1ccc(F)cc1 (stereo not given)
- TGI [1]: 43.4 µM
- TGI [2]: 93.1 µM
- TGI [3]: 54.1 µM
- TGI [5]: 37.2 µM
- TGI [10]: 67.3 µM
- TGI [7]: > 100 µM
- TGI [8]: > 100 µM
- TGI [9]: 41.3 µM

Compound: CCN(CC)/N=C\c1c2ccccc2cc2ccccc12
- TGI [1]: > 100 µM
- TGI [2]: 94.4 µM
- TGI [3]: > 100 µM
- TGI [4]: > 100 µM
- TGI [5]: 51.6 µM
- TGI [10]: 57.3 µM
- TGI [7]: > 100 µM
- TGI [8]: > 100 µM
- TGI [9]: > 100 µM

Compound: NS(=O)(=O)c1nnc(NS(=O)(=O)c2cccc3cccnc23)s1
- TGI [1]: > 100 µM
- TGI [2]: > 100 µM
- TGI [5]: > 100 µM
- TGI [6]: > 100 µM
- TGI [10]: > 100 µM
- TGI [7]: > 100 µM
- TGI [8]: > 100 µM
- TGI [9]: > 100 µM

Compound: [N-]=[N+]=Nc1cc(=O)[nH]c2ccccc12
- TGI [1]: > 100 µM
- TGI [2]: > 100 µM
- TGI [4]: > 100 µM
- TGI [5]: > 100 µM
- TGI [6]: > 100 µM
- TGI [10]: > 100 µM
- TGI [7]: > 100 µM
- TGI [8]: > 100 µM
- TGI [9]: > 100 µM

Compound: Cc1nc(N)c(N2CCN(S(=O)(=O)N(Cc3ccccc3)Cc3ccccc3)CC2)c(=O)[nH]1
- TGI [1]: > 100 µM
- TGI [2]: > 100 µM
- TGI [3]: > 100 µM
- TGI [5]: > 100 µM
- TGI [6]: > 100 µM
- TGI [8]: 74.7 µM
- TGI [9]: 36.8 µM

Compound: O=c1c(O)c(-c2ccccc2)oc2c(CP(=O)(O)O)cccc12
- TGI [1]: > 100 µM
- TGI [2]: > 100 µM
- TGI [4]: > 100 µM
- TGI [5]: > 100 µM
- TGI [6]: > 100 µM
- TGI [10]: > 100 µM
- TGI [7]: > 100 µM
- TGI [9]: > 100 µM

Compound: N=c1ncn(C/C=C/c2ccccc2)c2nc[nH]c12
- TGI [1]: > 100 µM
- TGI [4]: > 100 µM
- TGI [5]: > 100 µM
- TGI [6]: > 100 µM
- TGI [10]: > 100 µM
- TGI [7]: > 100 µM
- TGI [8]: > 100 µM
- TGI [9]: > 100 µM

Compound: Cc1ccc(/C=c2\c(=O)[nH]c3nc4ccccc4c(=O)n23)cc1
- TGI [1]: > 100 µM
- TGI [2]: > 100 µM
- TGI [3]: > 100 µM
- TGI [5]: > 100 µM
- TGI [6]: > 100 µM
- TGI [10]: 98.7 µM
- TGI [7]: > 100 µM
- TGI [8]: > 100 µM
- TGI [9]: 38 µM

Compound: CCOc1ccc2c(c1)C(/C(C(Cl)=C(Cl)Cl)=[N+](/[O-])OC(=O)c1ccccc1)=N2
- TGI [1]: > 100 µM
- TGI [2]: > 100 µM
- TGI [3]: > 100 µM
- TGI [5]: > 100 µM
- TGI [6]: > 100 µM
- TGI [10]: > 100 µM
- TGI [7]: > 100 µM
- TGI [8]: > 100 µM
- TGI [9]: > 100 µM

Compound: OCc1ccc2c(c1)CC1(Cc3ccccc3C1)C2
- TGI [1]: 29.6 µM
- TGI [2]: 54.4 µM
- TGI [3]: 67.4 µM
- TGI [10]: 36.2 µM
- TGI [7]: 84.8 µM

Compound: Cc1cc(C)[n+]2c(c1)C=CC2
- TGI [1]: > 100 µM
- TGI [3]: 26.3 µM
- TGI [5]: > 100 µM
- TGI [10]: 25.1 µM
- TGI [8]: > 100 µM
- TGI [9]: > 100 µM

Compound: O=C(Nc1ccc(Br)cc1)C(=O)C(C(=O)c1ccc(Cl)c(Cl)c1)C1OC(=O)c2ccccc21 (stereo not given)
- TGI [1]: 30.9 µM
- TGI [2]: > 100 µM
- TGI [3]: > 100 µM
- TGI [4]: 42.8 µM
- TGI [5]: 31.9 µM
- TGI [10]: 17.9 µM
- TGI [7]: > 100 µM
- TGI [8]: 97.8 µM
- TGI [9]: 22.8 µM

Compound: N#Cc1ccc(-c2ccc(Cl)cc2)n(C2OC(CO)C(O)C(O)C2O)c1=S (stereo not given)
- TGI [1]: > 100 µM
- GI50 [2]: > 100 µM
- TGI [2]: > 100 µM
- TGI [3]: > 100 µM
- GI50 [4]: > 100 µM and 28 µM
- TGI [4]: > 100 µM
- TGI [5]: > 100 µM
- TGI [6]: > 100 µM
- GI50 [10]: > 100 µM and 18.7 µM
- TGI [10]: > 100 µM and 51 µM
- GI50 [8]: > 100 µM and 26.4 µM
- TGI [8]: > 100 µM
- GI50 [9]: > 100 µM and 20 µM
- TGI [9]: > 100 µM

Compound: CC1(C)C2CC3C(C)(C2)C31c1cc(Cl)ccc1N (stereo not given)
- TGI [1]: 28.6 µM
- TGI [2]: 33.4 µM
- TGI [4]: 27.6 µM
- TGI [5]: 24.8 µM
- TGI [6]: 26.7 µM
- TGI [10]: 22.9 µM
- TGI [7]: 29 µM
- TGI [8]: 33.5 µM
- TGI [9]: 28.5 µM

Compound: O=c1c2cccnc2oc2c(Cl)cc(-c3nn[nH]n3)cc12
- TGI [2]: > 100 µM
- TGI [3]: > 100 µM
- TGI [4]: > 100 µM
- TGI [5]: > 100 µM
- TGI [10]: > 100 µM
- TGI [7]: > 100 µM
- TGI [8]: > 100 µM
